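Step 1: Grow cells in 96-well plates. Step 2: Expose to compound for 48 hours at 5 concentrations. Step 3: Interpolate endpoints linearly; if unreached, use highest concentration. GI50: concentration for 50% inhibition of growth. TGI: total growth inhibition.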
Columns and labels:
Experiment in all cases: DTP human tumour cell line panel, 48 h
UACC-62 melanoma = tested on: UACC-62 melanoma
TK-10 renal = tested on: TK-10 renal
ACHN renal = tested on: ACHN renal
NCI-H23 lung = tested on: NCI-H23 lung
M14 melanoma = tested on: M14 melanoma
UACC-257 melanoma = tested on: UACC-257 melanoma
OVCAR-5 ovarian = tested on: OVCAR-5 ovarian
SW-620 colon = tested on: SW-620 colon
IGROV1 ovarian = tested on: IGROV1 ovarian
DU-145 prostate = tested on: DU-145 prostate
LOX IMVI melanoma = tested on: LOX IMVI melanoma
OVCAR-4 ovarian = tested on: OVCAR-4 ovarian
NCI-H522 lung = tested on: NCI-H522 lung
SK-MEL-28 melanoma = tested on: SK-MEL-28 melanoma
HCT-116 colon = tested on: HCT-116 colon
SNB-75 CNS = tested on: SNB-75 CNS
K-562 leukemia = tested on: K-562 leukemia
A498 renal = tested on: A498 renal
HCT-15 colon = tested on: HCT-15 colon
HL-60(TB) leukemia = tested on: HL-60(TB) leukemia
HS 578T breast = tested on: HS 578T breast
HOP-92 NSCLC = tested on: HOP-92 NSCLC
MALME-3M melanoma = tested on: MALME-3M melanoma
RXF 393 renal = tested on: RXF 393 renal
NCI/ADR-RES ovarian = tested on: NCI/ADR-RES ovarian
HOP-62 NSCLC = tested on: HOP-62 NSCLC
OVCAR-8 ovarian = tested on: OVCAR-8 ovarian
SK-OV-3 ovarian = tested on: SK-OV-3 ovarian
SF-539 CNS = tested on: SF-539 CNS
MCF7 breast = tested on: MCF7 breast
NCI-H226 lung = tested on: NCI-H226 lung
A549 NSCLC = tested on: A549 NSCLC
RPMI-8226 leukemia = tested on: RPMI-8226 leukemia
SK-MEL-2 melanoma = tested on: SK-MEL-2 melanoma
SF-295 CNS = tested on: SF-295 CNS
CCRF-CEM leukemia = tested on: CCRF-CEM leukemia
SR leukemia = tested on: SR leukemia
MOLT-4 leukemia = tested on: MOLT-4 leukemia
SNB-19 CNS = tested on: SNB-19 CNS
MDA-MB-435 = tested on: MDA-MB-435
UO-31 renal = tested on: UO-31 renal
KM12 colon = tested on: KM12 colon
SF-268 CNS = tested on: SF-268 CNS
COLO 205 colon = tested on: COLO 205 colon
BT-549 breast = tested on: BT-549 breast
HT29 colon = tested on: HT29 colon
OVCAR-3 ovarian = tested on: OVCAR-3 ovarian
HCC-2998 colon = tested on: HCC-2998 colon
T-47D breast = tested on: T-47D breast
SK-MEL-5 melanoma = tested on: SK-MEL-5 melanoma
U251 CNS = tested on: U251 CNS
PC-3 prostate = tested on: PC-3 prostate
SN12C renal = tested on: SN12C renal
CAKI-1 renal = tested on: CAKI-1 renal
786-0 renal = tested on: 786-0 renal
NCI-H460 lung = tested on: NCI-H460 lung
MDA-MB-231 breast = tested on: MDA-MB-231 breast

SMILES: COc1ccc(C(=O)/C=C/c2c(Cl)c3c(c(OC)c2Cl)OCC(=O)N3)cc1
- GI50 (UACC-62 melanoma): 1680 nM
- TGI (UACC-62 melanoma): 3590 nM
- GI50 (TK-10 renal): 2550 nM
- TGI (TK-10 renal): 6090 nM
- GI50 (ACHN renal): 1790 nM
- TGI (ACHN renal): 3640 nM
- GI50 (NCI-H23 lung): 2230 nM
- TGI (NCI-H23 lung): 4850 nM
- GI50 (M14 melanoma): 2030 nM
- TGI (M14 melanoma): 5120 nM
- GI50 (UACC-257 melanoma): 2980 nM
- TGI (UACC-257 melanoma): > 100000 nM
- GI50 (OVCAR-5 ovarian): 3860 nM
- TGI (OVCAR-5 ovarian): > 100000 nM
- GI50 (SW-620 colon): 1810 nM
- TGI (SW-620 colon): 3660 nM
- GI50 (IGROV1 ovarian): 3280 nM
- TGI (IGROV1 ovarian): > 100000 nM
- GI50 (DU-145 prostate): 3170 nM
- TGI (DU-145 prostate): > 100000 nM
- GI50 (LOX IMVI melanoma): 1360 nM
- TGI (LOX IMVI melanoma): 2880 nM
- GI50 (OVCAR-4 ovarian): 2560 nM
- TGI (OVCAR-4 ovarian): 8040 nM
- GI50 (NCI-H522 lung): 1550 nM
- TGI (NCI-H522 lung): 3240 nM
- GI50 (SK-MEL-28 melanoma): 2180 nM
- TGI (SK-MEL-28 melanoma): 5220 nM
- GI50 (HCT-116 colon): 1430 nM
- TGI (HCT-116 colon): 2870 nM
- GI50 (SNB-75 CNS): 2230 nM
- TGI (SNB-75 CNS): 9710 nM
- GI50 (K-562 leukemia): 1850 nM
- TGI (K-562 leukemia): 7730 nM
- GI50 (A498 renal): 3070 nM
- TGI (A498 renal): 37200 nM
- GI50 (HCT-15 colon): 2010 nM
- TGI (HCT-15 colon): 6140 nM
- GI50 (HL-60(TB) leukemia): 2490 nM
- TGI (HL-60(TB) leukemia): 10600 nM
- GI50 (HS 578T breast): 4430 nM
- TGI (HS 578T breast): 50400 nM
- GI50 (HOP-92 NSCLC): 2440 nM
- TGI (HOP-92 NSCLC): 8880 nM
- GI50 (MALME-3M melanoma): 2280 nM
- TGI (MALME-3M melanoma): 4990 nM
- GI50 (RXF 393 renal): 1790 nM
- TGI (RXF 393 renal): 3540 nM
- GI50 (NCI/ADR-RES ovarian): 2620 nM
- TGI (NCI/ADR-RES ovarian): 7080 nM
- GI50 (HOP-62 NSCLC): 2800 nM
- TGI (HOP-62 NSCLC): 6960 nM
- GI50 (OVCAR-8 ovarian): 2850 nM
- TGI (OVCAR-8 ovarian): 16300 nM
- GI50 (SK-OV-3 ovarian): 3590 nM
- TGI (SK-OV-3 ovarian): 27100 nM
- GI50 (SF-539 CNS): 2210 nM
- TGI (SF-539 CNS): 4850 nM
- GI50 (MCF7 breast): 2320 nM
- TGI (MCF7 breast): > 100000 nM
- GI50 (NCI-H226 lung): 7080 nM
- TGI (NCI-H226 lung): > 100000 nM
- GI50 (A549 NSCLC): 3610 nM
- TGI (A549 NSCLC): > 100000 nM
- GI50 (RPMI-8226 leukemia): 1070 nM
- TGI (RPMI-8226 leukemia): 4070 nM
- GI50 (SK-MEL-2 melanoma): 2190 nM
- TGI (SK-MEL-2 melanoma): 5940 nM
- GI50 (SF-295 CNS): 3230 nM
- TGI (SF-295 CNS): 32700 nM
- GI50 (CCRF-CEM leukemia): 1870 nM
- TGI (CCRF-CEM leukemia): 8440 nM
- GI50 (SR leukemia): 1150 nM
- TGI (SR leukemia): 7450 nM
- GI50 (MOLT-4 leukemia): 2710 nM
- TGI (MOLT-4 leukemia): 9750 nM

SMILES: O=[N+]([O-])c1cccc([As]=[As]c2cccc([N+](=O)[O-])c2)c1 (stereo not drawn)
- GI50 (UACC-62 melanoma): 88.5 nM
- TGI (UACC-62 melanoma): 212 nM
- GI50 (SNB-19 CNS): 145 nM
- TGI (SNB-19 CNS): 279 nM
- GI50 (MDA-MB-435): 122 nM
- TGI (MDA-MB-435): 271 nM
- GI50 (UO-31 renal): 119 nM
- TGI (UO-31 renal): 255 nM
- GI50 (KM12 colon): 172 nM
- TGI (KM12 colon): 343 nM
- GI50 (TK-10 renal): 132 nM
- TGI (TK-10 renal): 266 nM
- GI50 (ACHN renal): 111 nM
- TGI (ACHN renal): 242 nM
- GI50 (NCI-H23 lung): 182 nM
- TGI (NCI-H23 lung): 384 nM
- GI50 (M14 melanoma): 136 nM
- TGI (M14 melanoma): 287 nM
- GI50 (UACC-257 melanoma): 122 nM
- TGI (UACC-257 melanoma): 252 nM
- GI50 (OVCAR-5 ovarian): 89.1 nM
- TGI (OVCAR-5 ovarian): 216 nM
- GI50 (SF-268 CNS): 81.9 nM
- TGI (SF-268 CNS): 228 nM
- GI50 (COLO 205 colon): 66.3 nM
- TGI (COLO 205 colon): 180 nM
- GI50 (SW-620 colon): 46 nM
- TGI (SW-620 colon): 195 nM
- GI50 (IGROV1 ovarian): 58.7 nM
- TGI (IGROV1 ovarian): 211 nM
- GI50 (DU-145 prostate): 163 nM
- TGI (DU-145 prostate): 309 nM
- GI50 (LOX IMVI melanoma): 45.2 nM
- TGI (LOX IMVI melanoma): 146 nM
- GI50 (OVCAR-4 ovarian): 92.1 nM
- TGI (OVCAR-4 ovarian): 308 nM
- GI50 (NCI-H522 lung): 15.4 nM
- TGI (NCI-H522 lung): 30.4 nM
- GI50 (SK-MEL-28 melanoma): 136 nM
- TGI (SK-MEL-28 melanoma): 305 nM
- GI50 (HCT-116 colon): 62.7 nM
- TGI (HCT-116 colon): 181 nM
- GI50 (SNB-75 CNS): 61.1 nM
- TGI (SNB-75 CNS): 206 nM
- GI50 (K-562 leukemia): 32.7 nM
- TGI (K-562 leukemia): 106 nM
- GI50 (BT-549 breast): 76.5 nM
- TGI (BT-549 breast): 204 nM
- GI50 (A498 renal): 83.5 nM
- TGI (A498 renal): 231 nM
- GI50 (HCT-15 colon): 43.7 nM
- TGI (HCT-15 colon): 174 nM
- GI50 (HT29 colon): 159 nM
- TGI (HT29 colon): 329 nM
- GI50 (HS 578T breast): 98 nM
- TGI (HS 578T breast): 498 nM
- GI50 (HOP-92 NSCLC): 43.3 nM
- TGI (HOP-92 NSCLC): 173 nM
- GI50 (MALME-3M melanoma): 56.2 nM
- TGI (MALME-3M melanoma): 155 nM
- GI50 (OVCAR-3 ovarian): 49.9 nM
- TGI (OVCAR-3 ovarian): 160 nM
- GI50 (RXF 393 renal): 89.8 nM
- TGI (RXF 393 renal): 230 nM
- GI50 (NCI/ADR-RES ovarian): 182 nM
- TGI (NCI/ADR-RES ovarian): 447 nM
- GI50 (HOP-62 NSCLC): 159 nM
- TGI (HOP-62 NSCLC): 301 nM
- GI50 (HCC-2998 colon): 130 nM
- TGI (HCC-2998 colon): 275 nM
- GI50 (OVCAR-8 ovarian): 141 nM
- TGI (OVCAR-8 ovarian): 284 nM
- GI50 (SK-OV-3 ovarian): 177 nM
- TGI (SK-OV-3 ovarian): 317 nM
- GI50 (SF-539 CNS): 73.7 nM
- TGI (SF-539 CNS): 201 nM
- GI50 (MCF7 breast): 32.7 nM
- TGI (MCF7 breast): 137 nM
- GI50 (NCI-H226 lung): 143 nM
- TGI (NCI-H226 lung): 287 nM
- GI50 (T-47D breast): 35.8 nM
- TGI (T-47D breast): 164 nM
- GI50 (A549 NSCLC): 178 nM
- TGI (A549 NSCLC): 351 nM
- GI50 (SK-MEL-5 melanoma): 162 nM
- TGI (SK-MEL-5 melanoma): 324 nM
- GI50 (RPMI-8226 leukemia): 49.5 nM
- TGI (RPMI-8226 leukemia): 180 nM
- GI50 (U251 CNS): 103 nM
- TGI (U251 CNS): 220 nM
- GI50 (SK-MEL-2 melanoma): 130 nM
- TGI (SK-MEL-2 melanoma): 272 nM
- GI50 (PC-3 prostate): 147 nM
- TGI (PC-3 prostate): 297 nM
- GI50 (SN12C renal): 110 nM
- TGI (SN12C renal): 239 nM
- GI50 (SF-295 CNS): 178 nM
- TGI (SF-295 CNS): 340 nM
- GI50 (CAKI-1 renal): 137 nM
- TGI (CAKI-1 renal): 281 nM
- GI50 (CCRF-CEM leukemia): 27.3 nM
- TGI (CCRF-CEM leukemia): 112 nM
- GI50 (786-0 renal): 96.1 nM
- TGI (786-0 renal): 222 nM
- GI50 (SR leukemia): 27.5 nM
- TGI (SR leukemia): 100 nM
- GI50 (NCI-H460 lung): 225 nM
- TGI (NCI-H460 lung): 500 nM
- GI50 (MOLT-4 leukemia): 104 nM
- TGI (MOLT-4 leukemia): 353 nM
- GI50 (MDA-MB-231 breast): 77.6 nM
- TGI (MDA-MB-231 breast): 212 nM
